Experimental data published in US20030162759A1, “Aldosterone blocker therapy to prevent or treat inflammation-related disorders” (priority 2000, published 2003).
“And” between values parts separate entries of the source, which are not always exact repeats. Identical values can stand only once.

Columns and labels:
[1] = system: Transforming growth factor beta 1; assay: Assay C: TGF beta 1 mRNA in left ventricle (TaqMan); assay type: in vivo, rat; details: for TGF-β, Mean: group mean; for TGF-β: individual rats
Method: The procedure of Assay B was expanded upon in a further study. […] Myocardial tissue from animals in each treatment group was examined after 7, 14, or 30 days of treatment.
Potassium chloride supplementation was added to the saline solution in order to prevent the potential hypokalemia associated with aldosterone excess.
At the time of the surgery, an Alzet 2002 osmotic minipump (Alza Corp., Palo Alto, Calif.) containing either vehicle (9% ethanol/87% propylene glycol/4% dH2O) or 1.0 mg/mL d-aldosterone (Sigma Chemical, St. Louis, Mo.) was inserted subcutaneously at the nape of the neck. Aldosterone was administered at a dose of 0.75 g/hour. […] Animals were sacrificed from each group (n=8-13) after 7, 14, or 30 days of treatment.
Following exsanguination, hearts and kidneys were isolated, removed, rinsed in cold phosphate-buffered saline, and blotted dry. Kidneys were immediately bifurcated through the long axis with a razor blade and placed in 10% neutral buffered formalin (NBF, Richard-Allen Scientific, Kalamazoo, Mich.). For the hearts, the right ventricle (RV) was cut away from the left ventricle (LV), both ventricles were weighed using a Mettler AE163 balance (Mettler-Toledo, Inc., Hightstown, N.J.), and the RV was placed in 10% NBF. A 2 mm coronal slab of the LV apex was removed and frozen with dry ice/isopentane for analysis of gene expression and the remaining portion of the LV was placed in 10% NBF for fixation. Final wet trimming was completed after 3-4 days fixation where a second 2 mm coronal slab was removed for hydroxyproline analysis and a third 2 mm slab was removed from the equatorial region for histology.
The fluorogenic 5′-nuclease assay (TaqMan PCR) using Applied Biosystems' 7700 Sequence Detection System (Applied Biosystems, Foster City, Calif.) allowed for real time detection/quantitation of a specific gene by monitoring the increase in fluorescence of a gene-specific, dye-labeled oligonucleotide probe. Probes for target and reference genes were labeled at the 5′-end with a 6-carboxyfluorescein (6FAM) reporter dye and at the 3′-end with a 6-carboxy-N,N,N′,N′-tetramethylrhodamine (TAMRA) quencher dye. When the probe was annealed to the target gene, fluorescence of 6FAM was prevented by the close proximity of TAMRA. The exonuclease activity of Taq polymerase released the dyes from the oligonucleotide probe by displacing the probe from the target sequence resulting in fluorescence excitation in direct proportion to the amount of target message present. Data analysis was performed using the Sequence Detection System software from Applied Biosystems.
Primers and probes were designed using Oligo Primer Analysis Software, Version 5.0 (National Biosciences Inc. (NBI)-Wojciech Rychlik, Cascade, Colo.). Primers were synthesized by Life Technologies (Grand Island, N.Y.) and probes were synthesized by Applied Biosystems. Primer/probe sets were designed from known sequences of rat genes to be analyzed. All target gene values were normalized to a reference gene, constitutively expressed cyclophilin. Primer/probe sets sequences can be found in Table 8
RNA was extracted from frozen (−70° C.) left ventricle (LV) tissue (approximately 10-20 mg) using 1.5 mL RNA-STAT 60 according to manufacturer's instructions (Leedo Medical Laboratories, Inc., Houston, Tex.). Briefly, tissues were homogenized using a tissue homogenizer equipped with a 5 mm probe (Ultra-Turrax T8 Homogenizer, IKA Works, Inc. Wilmington, N.C.). Following homogenization, an equal volume of molecular grade chloroform (Sigma Chemical Co., St. Louis, Mo.) was incubated with periodic mixing for 10 min at room temperature. Samples were centrifuged at 12,000 g for 10 min and RNA was precipitated from the top layer by adding an equal volume of molecular grade isopropanol (Sigma Chemical Co.) followed by an overnight incubation at −80° C.

[2] = system: aldosterone + salt treated rats; assay: Assay C further aldosterone infusion study: body weight, ventricle weights, tibia length (myocardial hypertrophy); assay type: in vivo, rat; details: for Ventricular weights and ventricular weight to tibia length ratios (hypertrophy): 7, 14, 30 days
Description: Assay C: Further in vivo Aldosterone Infusion Study The procedure of Assay B was expanded upon in a further study. […] Myocardial tissue from animals in each treatment group was examined after 7, 14, or 30 days of treatment. […] Lesions were preceded by the expression and progressive upregulation of proinflammatory molecules. […] Male Sprague-Dawley rats, weighing 230 to 250 g, (Harlan Sprague-Dawley Industries, Indianapolis, Ind.) were housed in a room 12-hours light/12-hours dark daily cycle at an ambient temperature of 22±1° C. (n=96). Animals were allowed one week to adjust after arrival and had free access to TEKLAD 22/5 rodent diet (Harlan TEKLAD, Madison, Wis.) and tap water until the initiation of the experiment. Prior to surgery the animals were individually weighed and placed in one of the following groups: […] Potassium chloride supplementation was added to the saline solution in order to prevent the potential hypokalemia associated with aldosterone excess. […] Louis, Mo.) was inserted subcutaneously at the nape of the neck. Aldosterone was administered at a dose of […]. […] Animals were sacrificed from each group (n=8-13) after 7, 14, or 30 days of treatment. Animals to be sacrificed after 7 or 14 days of treatment were uninephrectomized and implanted with an Alzet minipump. Animals treated for 30 days were uninephrectomized, fitted for Alzet minipumps, and implanted with radio telemetry units (model#TA11PA-C40, Data Sciences Inc., St. Paul, Minn.) according to the following procedure. […] The surgery site was clipped, scrubbed with nolvasan, and sprayed with betadine. A rostral-caudal incision was made through the skin from the base of the rib cage to the pubic region using a #11 scalpel blade. A second incision was made through the muscles of the abdominal wall to expose the peritoneal cavity. […] Organs were carefully displaced with tissue retractors in order to expose the abdominal aorta. A 1.5 cm segment just rostral to the bifurcation of the abdominal aorta into the iliac arteries was cleared of excessive connective tissue and 4-0 silk was used to make an anchor adjacent to the aorta. A microvascular clip was then placed at both ends of the cleaned region to stop excessive blood flow. Using a bent, 21 gauge needle, the abdominal aorta was penetrated. The cannula of the radio telemetry unit was inserted and stabilized in the aorta using the 4-0 silk anchor. Organs were repositioned and the telemetry unit was placed over the organs. Using a non-interrupted suture pattern with 4-0 silk, the abdominal wall was closed, and the skin was subsequently closed using a 4-0 silk in an interrupted suture pattern. […] Post-operative care included monitoring the animals on a heating pad during recovery from anesthesia until sternal recumbency was reestablished. At the cessation of each experimental time point, the animals were anesthetized with pentobarbital (65 mg/kg i.p., Sigma Chemical, St. Louis Mo.) and weighed with a Mettler PM6000 balance (Mettler-Toledo, Inc., Hightstown, N.J.). The abdominal cavity was opened to expose the abdominal aorta. A 16-gauge needle was inserted into the abdominal aorta and the animal was exsanguinated into a 12 cc syringe. The blood sample was transferred immediately into glass serum collection tubes (Terumo Medical Corp., Elkton, Md.) for drug level analysis. The samples were placed on wet ice until sample collection was complete and centrifuged for 15 min at 3000 rev/min at 4° C. Following exsanguination, hearts and kidneys were isolated, removed, rinsed in cold phosphate-buffered saline, and blotted dry.

[3] = group Mean row of Table 9.11, 7 days of treatment
[4] = individual rats, 7 days of treatment, eplerenone 100 mg/kg/day, listed as Aldosterone + salt
[5] = mean ± SEM after 30 days of treatment, eplerenone 100 mg/kg/day

Question: With `C[C@]12CCC(=O)C=C1CC[C@@H]1[C@@H]2[C@@H](O)C[C@]2(C=O)[C@@H](C(=O)CO)CC[C@@H]12` [aldosterone] as the compound, how does the “TGF-β, Mean” value ([1]; 30 days of treatment) read?
Answer: 1.33 AU

Question: What about the TGF-β ([1]; 7 days of treatment, listed as Aldosterone + salt) of the same compound?
Answer: 0.98 AU and 1.47 AU and 1.21 AU

Question: What about the TGF-β ([1]; 14 days of treatment, listed as Aldosterone + salt) of the same compound?
Answer: 0.55 AU and 1.27 AU and 0.56 AU

Question: What about the TGF-β ([1]; 30 days of treatment, listed as Aldosterone + salt) of the same compound?
Answer: 1.27 AU and 1.20 AU and 0.83 AU and 0.54 AU

Question: And the “Ventricular weights and ventricular weight to tibia length ratios (hypertrophy)” value ([2]; eplerenone 100 mg/kg/day)?
Answer: Significant left and right ventricular hypertrophy

Question: And the “Final Body Weight” value [2, 3]?
Answer: 277 g

Question: What about the “Right Ventricle Weight/Tibia Length” value [2, 3] of the same compound?
Answer: 48 mg/cm

Question: And the “Left Ventricle Weight” value [2, 4]?
Answer: 620 mg

Question: What about the “Left Ventricle Weight/Tibia Length” value [2, 4] of the same compound?
Answer: 200 mg/cm

Question: What about the “Right Ventricle Weight/Tibia Length” value [2, 4] of the same compound?
Answer: 48 mg/cm and 49 mg/cm and 57 mg/cm and 47 mg/cm (2×) and 44 mg/cm and 41 mg/cm and 51 mg/cm and 55 mg/cm

Question: And the “Left Ventricle Weight” value [2, 5]?
Answer: 910 ± 29 mg

Question: What about the “Right Ventricle Weight” value [2, 5] of the same compound?
Answer: 192 ± 8 mg

Question: What about the Right Ventricle Weight/Tibia Length [2, 5] of the same compound?
Answer: 49 ± 2 mg/cm

Question: What about the “Tibia Length” value [2, 5] of the same compound?
Answer: 3.9 ± 0.02 cm

Question: Which “TGF-β, Mean” value ([1]; 7 days of treatment) does the source give for `COC(=O)[C@@H]1CC2=CC(=O)CC[C@]2(C)[C@@]23O[C@@H]2C[C@@]2(C)[C@@H](CC[C@@]24CCC(=O)O4)[C@H]13` [eplerenone, Pregn-4-ene-7,21-dicarboxylic acid, 9,11-epoxy-17-hydroxy-3-oxo-, γ-lactone, methyl ester, (7α, 11α, 17β) -] here?
Answer: 0.99 AU

Question: And the “TGF-β, Mean” value ([1]; 14 days of treatment)?
Answer: 1.26 AU

Question: What about the “TGF-β, Mean” value ([1]; 30 days of treatment) of the same compound?
Answer: 1.32 AU

Question: And the TGF-β ([1]; 7 days of treatment, listed as Eplerenone + aldosterone + salt)?
Answer: 0.80 AU (2×) and 0.81 AU and 0.51 AU and 0.61 AU and 0.84 AU

Question: What about the TGF-β ([1]; 14 days of treatment, listed as Eplerenone + aldosterone + salt) of the same compound?
Answer: 0.58 AU and 0.62 AU and 1.04 AU and 0.71 AU and 1.21 AU and 2.41 AU

Question: What about the TGF-β ([1]; 30 days of treatment, listed as Eplerenone + aldosterone + salt) of the same compound?
Answer: 1.00 AU and 1.40 AU and 0.96 AU and 1.93 AU and 0.89 AU

Question: What about the “Ventricular weights and ventricular weight to tibia length ratios (hypertrophy)” value ([2]; eplerenone 100 mg/kg/day) of the same compound?
Answer: did not impact absolute ventricular weights or ventricular weight to tibia length ratios

Question: What about the “Right Ventricle Weight/Tibia Length” value ([2]; Table 9.13, 30-day protocol, eplerenone 100 mg/kg/day, individual rats, listed as Eplerenone + aldosterone + salt) of the same compound?
Answer: 50 mg/cm

Question: What about the “Decrease in body weight induced by aldosterone+salt” value ([2]; day 30, eplerenone 100 mg/kg/day) of the same compound?
Answer: significantly attenuated

Question: What about the “Final Body Weight” value ([2]; individual rats, 7 days of treatment, eplerenone 100 mg/kg/day, listed as Eplerenone + aldosterone + salt) of the same compound?
Answer: 306 g and 295 g (2×) and 277 g and 276 g

Question: What about the Left Ventricle Weight/Tibia Length [2, 5] of the same compound?
Answer: 240 ± 9 mg/cm

Question: And the Right Ventricle Weight/Tibia Length [2, 5]?
Answer: 51 ± 2 mg/cm
